Assay results reported in paper PMC12251161, “Crucian Carp-Derived ACE-Inhibitory Peptides with In Vivo Antihypertensive Activity: Insights into Bioactivity, Mechanism, and Safety” (Molecules, 2025).
Where a SMILES comes first, the peptide text is derived from it. [ ]: non-standard residue; d: D form. Hyp = O=C(O)[C@@H]1C[C@@H](O)CN1

Legend:
[1] = target: T1, ACE (from rabbit lung, EC 3.4.15.1) (Oryctolagus cuniculus, UniProt P12822); test: ACE-inhibitory activity assay (FAPGG substrate, spectrophotometric); format: biochemical; conditions: synthetic peptides; FAPGG 1 mmol/L, 80 mM HEPES, 0.3 M NaCl, pH 8.3, 37 °C; triplicate, sigmoidal dose–response fit; read-out: IC₅₀ ACE inhibition
T1 construct: ACE (from rabbit lung, EC 3.4.15.1); purchased Sigma-Aldrich Co. (St. Louis, MO, USA); host or cells: rabbit lung tissue
T1 sequence (P12822 34-1310): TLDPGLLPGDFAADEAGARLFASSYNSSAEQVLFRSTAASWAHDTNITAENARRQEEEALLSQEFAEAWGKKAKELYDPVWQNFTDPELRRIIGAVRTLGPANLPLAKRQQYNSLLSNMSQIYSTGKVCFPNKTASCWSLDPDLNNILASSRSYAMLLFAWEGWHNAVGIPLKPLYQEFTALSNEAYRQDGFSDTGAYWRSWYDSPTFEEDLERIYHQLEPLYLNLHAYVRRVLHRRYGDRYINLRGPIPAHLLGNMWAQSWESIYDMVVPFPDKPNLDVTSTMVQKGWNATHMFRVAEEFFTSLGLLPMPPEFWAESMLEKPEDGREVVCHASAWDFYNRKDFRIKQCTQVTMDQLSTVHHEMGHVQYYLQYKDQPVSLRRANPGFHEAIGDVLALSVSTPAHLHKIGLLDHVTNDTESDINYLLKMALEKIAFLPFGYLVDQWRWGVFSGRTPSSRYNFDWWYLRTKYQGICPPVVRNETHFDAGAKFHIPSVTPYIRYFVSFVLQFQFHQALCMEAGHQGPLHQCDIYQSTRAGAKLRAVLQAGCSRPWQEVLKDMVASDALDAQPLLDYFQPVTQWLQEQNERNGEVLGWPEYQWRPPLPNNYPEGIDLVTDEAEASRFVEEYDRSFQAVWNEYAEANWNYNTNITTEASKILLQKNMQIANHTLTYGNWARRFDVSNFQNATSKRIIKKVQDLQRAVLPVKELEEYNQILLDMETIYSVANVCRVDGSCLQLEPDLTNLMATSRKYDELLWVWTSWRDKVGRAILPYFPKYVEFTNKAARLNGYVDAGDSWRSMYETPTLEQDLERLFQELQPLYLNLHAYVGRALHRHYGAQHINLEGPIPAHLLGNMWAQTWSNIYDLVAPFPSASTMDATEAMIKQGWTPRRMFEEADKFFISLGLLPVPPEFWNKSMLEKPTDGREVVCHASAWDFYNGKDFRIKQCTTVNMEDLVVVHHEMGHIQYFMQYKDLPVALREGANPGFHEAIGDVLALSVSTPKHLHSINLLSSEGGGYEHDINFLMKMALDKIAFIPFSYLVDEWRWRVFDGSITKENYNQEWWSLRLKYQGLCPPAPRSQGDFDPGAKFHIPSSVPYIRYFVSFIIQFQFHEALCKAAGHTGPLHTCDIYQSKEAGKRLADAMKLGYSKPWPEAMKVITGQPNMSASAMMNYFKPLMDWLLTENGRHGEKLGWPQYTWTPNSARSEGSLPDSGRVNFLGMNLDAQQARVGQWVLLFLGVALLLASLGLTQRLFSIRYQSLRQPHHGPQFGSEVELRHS
Protocol: All other chemicals were of analytical grade.
All assays were conducted in triplicate.

BALB/c mice [2] = test: 90-day oral safety: mortality, clinical signs, body weight; format: in vivo; conditions: 50 mg/kg/day oral, 90 days, male and female
Protocol: (§1) A total of 40 healthy 7-week-old BALB/c mice (20 males and 20 non-pregnant females), with body weights within ±15% of the cohort mean, were obtained from Yangzhou University. All animals underwent a 7-day acclimation period under specific pathogen-free conditions prior to the experiment. Mice were housed under standard laboratory conditions: ambient temperature of 20–26 °C, relative humidity of 40–70%, and a 12 h light/dark cycle. General appearance, behavior, food intake, and body weight were monitored daily throughout the study. To evaluate the potential subchronic toxicity of the synthetic GA-Hyp-GAR peptide, a 90-day oral administration study was conducted. Mice were randomly divided into two groups (n = 10 males and 10 females per group): a normal group and a GA-Hyp-GAR-treated group receiving 50 mg/kg/day via daily intragastric gavage. The normal group received an equivalent volume of ultrapure water via the same route. After 90 consecutive days of treatment, all animals were anesthetized and euthanized 24 h after the final dose. […] Organ coefficients (organ weight/body weight × 100%) were calculated to assess potential physiological or pathological effects associated with long-term GA-Hyp-GAR exposure. […]

BALB/c mice [3] = test: 90-day oral safety: hematological parameters; format: in vivo; set-up: Red Cell Distribution Width—CV: unit not given here; conditions: 50 mg/kg/day oral, 90 days
Protocol: (§2) A total of 40 healthy 7-week-old BALB/c mice (20 males and 20 non-pregnant females), with body weights within ±15% of the cohort mean, were obtained from Yangzhou University. All animals underwent a 7-day acclimation period under specific pathogen-free conditions prior to the experiment. Mice were housed under standard laboratory conditions: ambient temperature of 20–26 °C, relative humidity of 40–70%, and a 12 h light/dark cycle. General appearance, behavior, food intake, and body weight were monitored daily throughout the study. To evaluate the potential subchronic toxicity of the synthetic GA-Hyp-GAR peptide, a 90-day oral administration study was conducted. Mice were randomly divided into two groups (n = 10 males and 10 females per group): a normal group and a GA-Hyp-GAR-treated group receiving 50 mg/kg/day via daily intragastric gavage. The normal group received an equivalent volume of ultrapure water via the same route. After 90 consecutive days of treatment, all animals were anesthetized and euthanized 24 h after the final dose. Blood samples were collected via cardiac puncture for hematological and serum biochemical analyses, performed using a Hitachi 3500 fully automated biochemical analyzer (Hitachi High-Tech Science Corp., Tokyo, Japan). Major organs—including the heart, liver, spleen, lungs, and kidneys—were excised, blotted dry, and weighed. Organ coefficients (organ weight/body weight × 100%) were calculated to assess potential physiological or pathological effects associated with long-term GA-Hyp-GAR exposure. Tissues were fixed in 4% paraformaldehyde, embedded in paraffin, sectioned, and stained with hematoxylin and eosin for histopathological evaluation. All animal experiments were conducted in accordance with the ethical guidelines of the Animal Ethics Committee of Nanjing Agricultural University, which approved the study protocol (Protocol No. NJAU-20250120-35).

BALB/c mice [4] = test: 90-day oral safety: serum biochemical parameters; format: in vivo; conditions: 50 mg/kg/day oral, 90 days
Protocol: as §2

BALB/c mice [5] = test: 90-day oral safety: organ coefficients; format: in vivo; conditions: 50 mg/kg/day oral, 90 days; liver, kidneys, spleen, lungs, heart
Protocol: as §1

BALB/c mice [6] = test: 90-day oral safety: histopathology (H&E); format: in vivo; conditions: 50 mg/kg/day oral, 90 days, liver, kidneys, spleen, lungs, heart
Protocol: as §1

angiotensin II = test: Angiotensin II level in SHRs (ELISA); format: in vivo, spontaneously hypertensive rats (SHRs); conditions: captopril 12 mg/kg oral, n = 6
Source text: (§3) Formic acid (≥99%, LC-MS grade), 4-(2-hydroxyethyl) piperazine-1-ethanesulfonic acid (HEPES, ≥99%, ACS grade), ACE (from rabbit lung, EC 3.4.15.1), acetonitrile (ACN, ≥99%, LC-MS grade), and N-[3-(2-Furyl) acryloyl]-Phe-Gly-Gly (FAPGG, ≥99%, ACS grade) were obtained from Sigma-Aldrich Co. (St. Louis, MO, USA). An enzyme-linked immunosorbent assay (ELISA) kit for AngII (catalog no. D731188-0048) was purchased from Sangon Biotech (Shanghai, China). ELISA kits for endothelial nitric oxide synthase (eNOS, catalog no. JL21190-48T) and BK (catalog no. JL21045-48T) were obtained from JONLN Biotechnology Co., Ltd. (Shanghai, China). Nitric Oxide (NO) assay kit (catalog no. A013-2-1) was purchased from Nanjing Jiancheng Bioengineering Institute (Nanjing, Jiangsu, China). All other chemicals were of analytical grade. […]
(§4) Systolic blood pressure (SBP) was measured using a non-invasive blood pressure monitoring system (BP-2000, Softron Co., Tokyo, Japan) at baseline (0 h) and at 2, 4, 6, 8, and 12 h after administration to evaluate the antihypertensive effects of the test peptides, following the method described by Kurita. The levels of AngII, eNOS, and BK were measured using commercial ELISA kits, while NO levels were determined using the Microwell plate method with a specialized assay kit.

[7] = tested on: endothelial nitric oxide synthase (eNOS); test: Endothelial nitric oxide synthase level in SHRs (ELISA); format: in vivo, spontaneously hypertensive rats (SHRs); conditions: oral, vs model group
Source text: as §3, §4

nitric oxide (NO) = test: Nitric oxide level in SHRs (assay kit); format: in vivo, spontaneously hypertensive rats (SHRs); conditions: oral, vs model group
Source text: as §3, §4

## C[C@H](NC(=O)CNC(=O)[C@@H]1C[C@@H](O)CN1C(=O)[C@H](C)NC(=O)CN)C(=O)N[C@@H](CCCNC(=N)N)C(=O)O [GA-Hyp-GAR, Gly-Ala-hydroxyproline-Gly-Ala-Arg] (H-GA[Hyp]GAR-OH)
[1]
  IC50: 4 µM
BALB/c mice [2]
  body weight: Body weight increased steadily in all groups over the study period
  mortality and signs of toxicity: no mortality or signs of toxicity were observed
BALB/c mice [3]; vs control
  hematological parameters in words: no statistically significant differences (p > 0.05) between the treated and control groups in key hematological parameters
BALB/c mice [3]; normal 0.16 ± 0.27, p >0.9999
  Plateletcrit: 0.16 ± 0.26%
BALB/c mice [3]; normal 2.05 ± 3.45, p 0.9798
  Mean Platelet Volume: 2.09 ± 3.52 fL
BALB/c mice [3]; normal 2.91 ± 4.95, p 0.9364
  Platelet Distribution Width: 3.09 ± 5.00 fL
BALB/c mice [3]; normal 3.62 ± 6.29, p 0.9916
  Platelet Large Cell Ratio: 3.65 ± 6.26%
BALB/c mice [3]; normal 4.28 ± 1.72, p 0.3610
  White Blood Cells: 3.66 ± 1.19 ×10⁹/L
BALB/c mice [3]; normal 10.71 ± 0.83, p 0.2451
  Red Blood Cells: 11.13 ± 0.73 ×10^12/L
BALB/c mice [3]; normal 15.65 ± 0.32, p 0.7101
  Mean Corpuscular Hemoglobin: 15.70 ± 0.27 pg
BALB/c mice [3]; normal 26.58 ± 1.94, p 0.4260
  Red Cell Distribution Width—CV: 25.95 ± 1.49
BALB/c mice [3]; normal 32.81 ± 11.68, p 0.8517
  Red Cell Distribution Width—SD: 31.99 ± 7.11 fL
BALB/c mice [3]; normal 167.60 ± 13.10, p 0.1978
  Hemoglobin: 174.70 ± 10.50 g/L
BALB/c mice [3]; normal 341.80 ± 15.10, p 0.7101
  Mean Corpuscular Hemoglobin Concentration: 355.90 ± 5.50 g/L
BALB/c mice [3]; normal 675.50 ± 200.50, p 0.9198
  Platelet Count: 683.40 ± 140.00 ×10⁹/L
BALB/c mice [4]; vs normal group
  serum biochemical markers of hepatic and renal function in words: no significant differences (p > 0.05) between the treated and normal groups in markers of hepatic function
BALB/c mice [4]; normal 1.94 ± 0.40, p 0.0526
  Triglycerides: 2.35 ± 0.48 mmol/L
BALB/c mice [4]; normal 2.47 ± 0.23, p 0.1796
  Total Cholesterol: 2.32 ± 0.25 mmol/L
BALB/c mice [4]; normal 2.48 ± 1.03, p 0.9294
  Aspartate Aminotransferase: 2.44 ± 0.96 µkat/L
BALB/c mice [4]; normal 3.32 ± 0.65, p 0.2065
  Alkaline Phosphatase: 2.99 ± 0.46 µkat/L
BALB/c mice [4]; normal 5.69 ± 3.38, p 0.1654
  Glucose: 7.79 ± 3.11 mmol/L
BALB/c mice [4]; normal 7.81 ± 1.53, p 0.6237
  Blood Urea Nitrogen: 8.13 ± 1.33 mmol/L
BALB/c mice [4]; normal 14.70 ± 5.80, p 0.2390
  Creatinine: 18.13 ± 6.76 µmol/L
BALB/c mice [4]; normal 35.24 ± 1.32, p 0.5021
  Albumin: 35.60 ± 1.01 g/L
BALB/c mice [4]; normal 58.21 ± 3.77, p 0.9711
  Total Protein: 58.16 ± 2.09 g/L
BALB/c mice [4]; normal 684.30 ± 288.39, p 0.8986
  Alanine Aminotransferase: 701.81 ± 316.56 nkat/L
BALB/c mice [5]
  organ coefficients: organ coefficients did not differ significantly between the GA-Hyp-GAR-treated and normal groups (p > 0.05)
BALB/c mice [6]
  histopathology of major organs: no observable pathological changes in any of the examined organs

## C[C@H](NC(=O)CNC(=O)[C@@H]1C[C@@H](O)CN1)C(=O)N[C@@H](CCCNC(=N)N)C(=O)O [Hyp-GAR, Hydroxyproline-Gly-Ala-Arg] (H-[Hyp]GAR-OH)
[1]
  IC50: 12.2 µM

## C[C@H](CS)C(=O)N1CCC[C@H]1C(=O)O [captopril]
Angiotensin II
  AngII concentration: 220.16 ± 31.67 pg/mL
[7]
  eNOS levels in words: significantly restored both eNOS and NO levels
Nitric oxide (NO)
  NO levels in words: significantly restored both eNOS and NO levels
